Source: patent publication US4618678A, “4-(2,3-dichloro-6-fluorophenyl)-1,4,5,6,7,8-hexahyd ro-2-methyl-5-oxo-1,7-naphthyridine-3-carboxylic acid 2-(2,3-dichlorophenoxy)ethyl ester” (American Home Products Corporation, priority 1985, dated 1986)

Tests used:
[1] = system: arterial actin-myosin interactions; experiment: Inhibition of superprecipitation (antagonism of arterial actin-myosin interaction); format: biochemical; details: for Antag. of Actin-Myosin (percent inhibition of superprecipitation): six minute time-point; for antagonism of arterial actin-myosin interactions (in words): 'unlike' = does not antagonize as the compounds of the invention do
Method: (§1) The data reported herein was obtained at a six minute time-point rather than the 1.5, 5 and 12 minute time points indicated in the superprecipitation assay of the Silver et al. paper.
(§2) The following examples illustrate the preparation of a representative number of compounds of this invention. After each example, the Ca^+2 antagonist activity of the compound is presented in terms of percent relaxation of aortic tissue (P.R.) at 10^-5 M concentration. […] Inhibition of superprecipitation (Antag. of Actin-Myosin interaction) is expressed as percent inhibition (mean±standard error of the mean for at least 3 separate experiments) at a compound concentration. In the same manner, inhibition of myosin light chain phosphorylation (Antag. of MLCP) is expressed as a percent inhibition at a compound concentration. Similarly, the antihypertensive activity is reported in terms of millimeters mercury (mmHg) systolic blood pressure (B.P.) reduction at the stated time post 50 mg/kg oral dosing or other dosing as indicated.

[2] = system: isolated paced intact rabbit atria; experiment: Cardiac depressant (negative inotropic) effect in isolated paced intact rabbit atria; format: cell-based; details: 3 Hz, 30° C.
Method: The potential for detrimental cardiac depressant (negative inotropic) effects of the compounds of this invention was assessed in isolated paced intact rabbit atria. Left and right atria (with nodal tissue excised) were suspended vertically in a jacketed (30° C.) organ bath containing 50 ml of PSS and aerated with 95% O2 /5% CO2. Muscles (N=5-9/compound) were stimulated at a frequency of 3 Hz with a WPI stimulator for a 60 minute equilibration period. Changes in isometric force were recorded as described for the aoritc smooth muscle experiments,supra. Following equilibration, the test compound (or as a control, the ethanol vehicle) was added to the organ bath in a cumulative manner from doses ranging from 10^-9 M to 10^-5 M (10^-5 M was the maximum dose which could be attained due to the depressant effect of ethanol) and effects on developed isometric force were determined. […]
The following examples illustrate the preparation of a representative number of compounds of this invention. […] Inhibition of superprecipitation (Antag. of Actin-Myosin interaction) is expressed as percent inhibition (mean±standard error of the mean for at least 3 separate experiments) at a compound concentration. In the same manner, inhibition of myosin light chain phosphorylation (Antag. of MLCP) is expressed as a percent inhibition at a compound concentration. […]

[3] = system: Ca^+2 -calmodulin dependent myosin light chain phosphorylation; experiment: Inhibition of Ca+2-calmodulin dependent myosin light chain phosphorylation (MLCP); format: biochemical; details: 'unlike' = does not antagonize as the compounds of the invention do
Method: as §1, §2

[4] = system: spontaneously hypertensive rats; experiment: Hypotensive effect on systolic blood pressure of spontaneously hypertensive rats; format: in vivo, rat; details: SHR, oral, 10 mg/kg, at 1.5 hours

CC1=C(C(=O)OCCOc2ccccc2)C(c2c(F)c(F)c(F)c(F)c2F)C2=C(CNCC2=O)N1 (single isomer, unassigned; (+)) [Example 4, (+)-1,4,5,6,7,8-Hexahydro-2-methyl-5-oxo-4-(pentafluorophenyl)-1,7-naphthyridine-3-carboxylic acid 2-phenoxyethyl ester]
Antag. of Actin-Myosin (percent inhibition of superprecipitation) ([1]; 50 μM): 38% | Antag. of Actin-Myosin (percent inhibition of superprecipitation) ([1]; 100 μM): 71% | IC25 (concentration producing 25% inhibition of isometric force) [2]: 0.8 µM

CC1=C(C(=O)OCCOc2ccccc2)C(c2c(F)c(F)c(F)c(F)c2F)C2=C(CNCC2=O)N1 (single isomer, unassigned; (-)) [Example 3, (-)-1,4,5,6,7,8-Hexahydro-2-methyl-5-oxo-4-(pentafluorophenyl)-1,7-naphthyridine-3-carboxylic acid 2-phenoxyethyl ester]
Antag. of Actin-Myosin (percent inhibition of superprecipitation) ([1]; 50 μM): 65% | Antag. of Actin-Myosin (percent inhibition of superprecipitation) ([1]; 100 μM): 76% | IC25 (concentration producing 25% inhibition of isometric force) [2]: > 10 µM

COC(=O)C1=C(C)NC(C)=C(C(=O)OC)C1c1ccccc1[N+](=O)[O-] [nifedipine, reference compound]
antagonism of arterial actin-myosin interactions (in words) [1]: unlike | antagonism of Ca^+2 -calmodulin dependent myosin light chain phosphorylation (in words) [3]: unlike

CCOC(=O)C1=C(C)NC(C)=C(C(=O)OC)C1c1cccc([N+](=O)[O-])c1 (centres unmarked) [nitrendipine, reference compound]
antagonism of arterial actin-myosin interactions (in words) [1]: unlike | antagonism of Ca^+2 -calmodulin dependent myosin light chain phosphorylation (in words) [3]: unlike

COc1ccc(CCN(C)CCCC(C#N)(c2ccc(OC)c(OC)c2)C(C)C)cc1OC (centres unmarked) [Verapamil, reference compound]
antagonism of arterial actin-myosin interactions (in words) [1]: unlike | antagonism of Ca^+2 -calmodulin dependent myosin light chain phosphorylation (in words) [3]: unlike

CC1=C(C(=O)OCCOc2ccccc2)C(c2c(F)c(F)c(F)c(F)c2F)C2=C(CNCC2=O)N1 (racemic) [Example 2, 1,4,5,6,7,8-Hexahydro-2-methyl-5-oxo-4-(pentafluorophenyl)-1,7-naphthyridine-3-carboxylic acid 2-phenoxyethyl ester]
Antag. of Actin-Myosin (percent inhibition of superprecipitation) ([1]; 100 μM): 72±2% | B.P. (systolic blood pressure reduction) [4]: 39 mm
